Marks after values point to notes of the source that are not given here.

Common to all, as to assay type: in vivo
Test [1] relates to soybean seed (Stine S2118). As to the kind of experiment: Field trial (Example 1): grain yield from treated soybean seed, Whitewater, Wis. Particulars: for GRAIN YIELD @ 13%: 4.8 fl oz/cwt, 13% seed moisture. The protocol:
A field trial was conducted to evaluate embodiments of the present invention on grain yield when applied on soybean seed. The field trial site was located near Whitewater, Wis. and characterized by Milford silty clay loam soil.
The plant signal molecules used in the trial were Optimize®, a non-commercial grade of Optimize® (NI-50S-1), pure LCO-V (C18:1, MeFuc)(NI-50GREN-1) and a non-commercial grade of LCO-V (C18:1, MeFuc)(NI-50S-2CF). The soybean seed used in the study was Stine S2118. The plant signal molecules were sprayed onto seeds with/without dilution at a rate of 4.8 fl oz/cwt.
The study was conducted in a randomized complete block design, with a plot size of 10 feet by 50 feet (0.011 acres), with 7.5-inch row spacing. Four replications were conducted. Seed were treated with the plant signal molecules 4.5 or 5 months prior to planting and just prior to planting, and were planted at a depth of 1 inch and at a seedling rate of 225,000 seeds per acre using a John Deere 750 NT grain drill. The pesticides Extreme® and AMPS® were both applied 11 days prior to planting (pre-emergence) at rates of 3.0 pt and 2.5 lb, respectively. Assure II®, Roundup WeatherMax® and AMPS® were all applied 46-days post-planting (post-emergent), at rates of 6.0 oz, 21 oz and 2.5 lb, respectively. Plants were harvested 4 months and 20 days after planting.
The Control seed was treated with an amount (wt) of water, corresponding to the amount (wt) of the experimental signal molecule composition (signal molecule+carrier). The Control seed was stored under the same conditions as the experimental seed prior to planting and planted at the same time as the experimental seed in the same soil.

The subject of test [2] is soybean seed (Stine 52118). As to the kind of experiment: Field trial (Example 2): grain yield from treated soybean seed, Whitewater, Wis. As to conditions: for GRAIN YIELD @ 13%: 4.8 fl oz/cwt, 13% seed moisture. The protocol: A soybean trial was conducted to evaluate embodiments of the present invention on grain yield when applied on soybean seed. The field trial site was located near Whitewater, Wis. and characterized by Milford silty clay loam soil. […] The plant signal molecules used in the trial were same as in Example 1. The soybean seed used in the study was Stine 52118. The plant signal molecules were sprayed onto seeds with/without dilution at a rate of 4.8 fl oz/cwt. The study was conducted in a randomized complete block design, with a plot size of 10 feet by 50 feet (0.011 acres), with 7.5-inch row spacing. Four replications were conducted. Seed were treated with the plant signal molecules 4.5 or 5 months prior to planting and just prior to planting, and were planted at a depth of 1 inch and at a seedling rate of 225,000 seeds per acre using a John Deere 750 NT grain drill. The pesticides Extreme® and AMPS® were both applied 10 days prior to planting (pre-emergence) at rates of 3.0 pt and 2.5 lb, respectively. Assure II®, Roundup WeatherMax® and AMPS® were all applied 45-days post-planting (post-emergent), at rates of 6.0 oz, 21 oz and 2.5 lb, respectively. Plants were harvested 4 months and 21 days after planting. The Control seed was treated with an amount (wt) of water, corresponding to the amount (wt) of the experimental signal molecule composition (signal molecule+carrier). The Control seed was stored under the same conditions as the experimental seed prior to planting and planted at the same time as the experimental seed in the same soil.

For another test, the system named is Soybean seeds. As to the kind of experiment: Greenhouse test (Example 3): root length and root volume of seedlings from stored treated seed (Winrhizo scanner). Particulars: for % increase in root length / % increase in root vol.: versus Control; for Root Vol. / Root length: 10^−7M, stored at 15° C., harvested after 10 days. The protocol:
Soybean seeds treated with 10^−7M pure LCO-V (C18:1, MeFuc) and stored at 15° C. Treated seeds and non-treated seeds (control) were planted 1 and 12 months after treatment in greenhouse pots containing sand:perlite (1:1 mixture). Seedlings were grown for 10 days after seed plantings then seedlings were harvested, their roots cleaned and measured on the Winrhizo® scanner. The Control seed was treated with an amount (wt) of water, corresponding to the amount (wt) of the experimental signal molecule composition (signal molecule+carrier). The Control seed was stored under the same conditions as the experimental seed prior to planting and planted at the same time as the experimental seed in the same soil.

[3] abbreviates: 5 months pre-planting (Group 5) versus at planting (Group 4).
[4] abbreviates: seed treated 5 months prior to planting.
Setting [5] is: planted 1 month after treatment.

With LCO-V (C18:1, MeFuc) [NI-50GREN-1], the “increase in soybean yield” value in test [1] (setting [3]) came to 8.3 bushels/acre. The “GRAIN YIELD @ 13%” value came out at 70.5 bushels/acre in test [1] (setting [4]), 62.2 bushels/acre in test [1] (seed treated at planting), 64.0 bushels/acre in test [2] (setting [4]) and 65.8 bushels/acre in test [2] (seed treated at planting). For the same substance, the “decrease in soybean yield” value in test [2] (setting [3]) is reported as 1.8 bushels/acre. Moreover, the “% increase in root length” value amounted to 5.46% in the test on Soybean seeds (1 month after treatment) and 37.92% with Soybean seeds (1 yr after treatment). Also, the “% increase in root vol.” value in the test with Soybean seeds (1 month after treatment) worked out at 2.86%; in the test with Soybean seeds (1 yr after treatment), 34%. Moreover, the “Root Vol.” value in the test with Soybean seeds (setting [5]) is reported as 0.468 cm^3; in the test on Soybean seeds (planted 1 yr after treatment), 0.540* cm^3. Also, the Root length with Soybean seeds (setting [5]) was 135* cm; with Soybean seeds (planted 1 yr after treatment), 159.3* cm.
